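Briefly, cells in 96-well plates were exposed to five compound concentrations for 48 h, and endpoints were estimated by linear interpolation. The concentration for 50% growth inhibition is given as GI50. Definition used: TGI = concentration required for complete inhibition of growth.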
How the values were obtained:
Test in all cases: NCI-60 cell line screen, 48 h
HCT-15 colon = test system: HCT-15 colon
SK-OV-3 ovarian = test system: SK-OV-3 ovarian
KM12 colon = test system: KM12 colon
UACC-257 melanoma = test system: UACC-257 melanoma
NCI-H226 lung = test system: NCI-H226 lung
DU-145 prostate = test system: DU-145 prostate
HOP-92 NSCLC = test system: HOP-92 NSCLC
RXF 393 renal = test system: RXF 393 renal
T-47D breast = test system: T-47D breast
OVCAR-4 ovarian = test system: OVCAR-4 ovarian

SMILES	GI50 (HCT-15 colon) [µM]	TGI (HCT-15 colon) [µM]	GI50 (SK-OV-3 ovarian) [µM]	TGI (SK-OV-3 ovarian) [µM]	GI50 (KM12 colon) [µM]	TGI (KM12 colon) [µM]	GI50 (UACC-257 melanoma) [µM]	TGI (UACC-257 melanoma) [µM]	GI50 (NCI-H226 lung) [µM]	TGI (NCI-H226 lung) [µM]	GI50 (DU-145 prostate) [µM]	TGI (DU-145 prostate) [µM]	GI50 (HOP-92 NSCLC) [µM]	TGI (HOP-92 NSCLC) [µM]	GI50 (RXF 393 renal) [µM]	TGI (RXF 393 renal) [µM]	GI50 (T-47D breast) [µM]	TGI (T-47D breast) [µM]	GI50 (OVCAR-4 ovarian) [µM]	TGI (OVCAR-4 ovarian) [µM]
COc1ccc(COc2cc3oc(=O)c4cc(C(C)O)ccc4c3cc2OC)cc1 (configuration not stated)	12	> 100	13.2	45.8	26.2	> 100	19.7	> 74.6	12.3	49.8	45.5	> 100	4.22	33.5	5.33	15.6	12.7	> 100	10.1	66.2
c1ccc(-c2csc3ncn4cnnc4c23)cc1	–	> 100	–	> 100	–	> 100	–	–	–	> 100	–	–	–	84.7	–	–	–	–	–	> 100
NC(=O)CC(N)c1nn[nH]n1 (configuration not stated)	–	> 100	–	> 100	–	> 100	–	> 100	–	> 100	–	> 100	–	> 100	–	> 100	–	> 100	–	> 100
Fc1ccc2nc(-c3nc(-c4ccccc4)n4ccccc34)[nH]c2c1	4.29	27.7	2.4	5.26	3.31	10.2	2.16	4.76	1.8	5.8	5.56	18.1	1.73	6.42	2.99	10.2	1.06	4.76	1.93	6.31
COc1ccc2c(c1)C(=O)c1c-2c(=O)n(CCCN(C)C)c2cc(OC)c(OC)cc12	12.6	27.4	5.15	19.5	5.73	19.8	16.9	33	3.39	> 100	0.623	10.9	> 100	> 100	11.2	23.6	> 100	> 100	12.6	25.3
Cc1cc(O)c2c3c(ccc2c1)C(=O)c1c(O)cccc1C3=O	–	> 100	–	> 100	–	> 37.8	–	> 100	–	> 100	–	> 100	–	> 100	–	> 100	–	> 100	–	29.8
c1ccc2c(CNCCN3CCNCC3)c3ccccc3c(CNCCN3CCNCC3)c2c1	> 100	> 100	24.5	79.8	10.3	26.8	62	> 100	10.3	37.6	7.26	33.2	–	–	25.3	81.9	19.9	81.9	43.8	> 100
Cc1ccc(C2=Nc3ccccc3SC(c3cccc4c3OCO4)C2)cc1 (configuration not stated)	–	54.1	–	76.3	–	32.5	–	38.4	–	37	–	–	–	–	–	–	–	–	–	33.7
Cn1nc(-c2ccccc2)c(C(=O)/C=C/c2ccc(Cl)cc2)c(N2CCOCC2)c1=O	–	13.4	–	19.7	–	–	–	–	–	–	–	–	–	9.36	–	6.79	–	–	–	–
C=CC[N+]1(CC)CCN=C1CCCCCCCCCCCCCCCCC (configuration not stated)	–	–	1.12	2.33	–	–	0.731	2.16	–	–	0.659	2.02	–	–	0.205	0.836	0.315	1.62	–	–
COc1ccc(-c2c3c(N)c4c(nc3nc3c2c(C)nn3-c2ccccc2)CCCC4)cc1	3.08	10.9	12.1	24.6	3.16	10.8	2.43	9.38	19.6	52.5	4.72	16.4	–	–	8.48	26.7	–	–	3.22	16.4
Cc1cc2c(c(=O)o1)C1=S(SC(c3ccccc3)=C1)S2 (configuration not stated)	–	> 100	–	52.6	–	> 100	–	> 100	–	–	–	> 100	–	83	–	50.1	–	> 100	–	> 100
O=C1C(Nc2cccc(O)c2)=C(Sc2ccccc2)C(=O)N1Cc1ccccc1	12.4	38.8	16.4	35.3	14	28.8	–	–	2.55	22	16.2	33.3	–	–	5.07	25.6	1.84	19.9	5.33	49.6
CC1CCN(CCOc2ccc(CNc3ccc4nc(CCC5CCCCC5)[nH]c4c3)cc2)CC1	1.43	3.03	1.81	3.4	1.77	3.51	1.88	3.74	1.63	3.48	2.52	6.9	0.643	2.23	1.33	2.84	–	–	2.62	8.18
O=[N+]([O-])/C=C/c1ccc(Cl)cc1Cl	–	46.4	–	–	–	29.6	–	27.4	–	32.2	–	–	–	31	–	–	–	–	–	34.8
N#C/C(=C1\OC(=N)C(c2ccc(Cl)cc2Cl)C1=O)c1ccc(Cl)cc1Cl (configuration not stated)	–	> 100	–	> 100	–	–	–	> 100	–	> 100	–	–	–	> 100	–	> 100	–	–	–	> 100
O=C(c1c(O)cc(O)cc1O)C1Cc2ccccc21 (configuration not stated)	–	> 100	–	> 100	–	> 100	–	> 100	–	> 100	–	–	–	> 100	–	> 100	–	–	–	> 100
CC(N)CC(=O)O (configuration not stated)	–	> 5000	–	> 5000	–	> 5000	–	> 5000	–	> 5000	–	–	–	> 5000	–	> 5000	–	–	–	> 5000

Reference: PubChem BioAssay (NCI)
